Results taken from paper PMC6698751 (2019).

How the values were obtained:
[1] = system: two-piece glutamine-II riboswitch (RNA, riboswitch) CGUUCACCCUUCGGGGCGCA/UGAAAUGGGAGUAGGGAACGGGAUUCUCAU; assay: isothermal titration calorimetry; details: 100 mM K+, 10 mM Mg2+; equimolar mixture of two strands, 40 mM HEPES-K pH 7.0, 298 K
[2] = system: C39Z glutamine-II riboswitch (RNA, riboswitch, zebularine at 39 (C39Z)) CGUUCACCCUUCGGGGCGCAUGAAAUGGGAGUAGGGAACGGGAUUCUCAU; assay: isothermal titration calorimetry; details: 100 mM K+, 10 mM Mg2+; 40 mM HEPES-K pH 7.0, 298 K; 2-4 mM L-glutamine in syringe
[3] = system: C1Z glutamine-II riboswitch (RNA, riboswitch, zebularine at 1 (C1Z)) CGUUCACCCUUCGGGGCGCAUGAAAUGGGAGUAGGGAACGGGAUUCUCAU; assay: isothermal titration calorimetry; details: 100 mM K+, 10 mM Mg2+; 40 mM HEPES-K pH 7.0, 298 K; no measurable heat; 2-4 mM L-glutamine in syringe
[4] = system: glutamine-II riboswitch (RNA used for crystallization) (RNA, riboswitch, 5-bromocytidine at 8 and 9) CGUUCACCCUUCGGGGCGCAUGAAAUGGGAGUAGGGAACGGGAUUCUCAU; assay: X-ray crystallography, 2.3 Å; details: Mg2+ in PDB record; strand-exchanged dimer; metal ion directly bound to glutamine carboxylate
[5] = system: G18 O2'H glutamine-II riboswitch (RNA, riboswitch, 2'-deoxy at 18 (2'-hydroxyl of G18 removed)) CGUUCACCCUUCGGGGCGCAUGAAAUGGGAGUAGGGAACGGGAUUCUCAU; assay: isothermal titration calorimetry; details: 100 mM K+, 10 mM Mg2+; 40 mM HEPES-K pH 7.0, 298 K; 2-4 mM L-glutamine in syringe
[6] = system: glutamine-II riboswitch (unmodified; RNA used for calorimetry) (RNA, riboswitch) CGUUCACCCUUCGGGGCGCAUGAAAUGGGAGUAGGGAACGGGAUUCUCAU; assay: isothermal titration calorimetry; details: 100 mM K+, 10 mM Mg2+; 40 mM HEPES-K pH 7.0 (7.2 in Figure 4 legend), 298 K; mean of three titrations

NC(=O)CC[C@H](N)C(=O)O
binding [1]: yes | binding [2]: no | binding [3]: no | binding [4]: yes | binding [5]: no | Kd [6]: 190 ± 90 µM
